Assay results from ChEMBL document CHEMBL5226325, “Optimization of a Screening Hit toward M2912, an Oral Tankyrase Inhibitor with Antitumor Activity in Colorectal Cancer Models” (J Med Chem, 2021).
Blank lines part the entries; values can stand above or below the molecule they belong to.

Key:
[1] = target: Poly [ADP-ribose] polymerase 1 (Homo sapiens, UniProt P09874); test: Inhibition of PARP-1 (unknown origin) using biotinylated NAD and NAD as substrate assessed as inhibition of auto-PARsylation incubated for 150 mins by TR-FRET assay
[2] = Modulation of Wnt/beta-catenin signaling pathway in human DLD-1 cells assessed as induction of AXIN2 accumulation incubated for 24 hrs by ELISA; format: cell-based; details: DLD-1, 24 h
[3] = target: T1, Poly [ADP-ribose] polymerase tankyrase-2 (Homo sapiens, UniProt Q9H2K2); test: Inhibition of TNKS2 (unknown origin) using biotinylated NAD as substrate assessed as inhibition of autoPARsylation activity incubated for 1 hr by ELISA
T1 sequence (Q9H2K2 whole entry): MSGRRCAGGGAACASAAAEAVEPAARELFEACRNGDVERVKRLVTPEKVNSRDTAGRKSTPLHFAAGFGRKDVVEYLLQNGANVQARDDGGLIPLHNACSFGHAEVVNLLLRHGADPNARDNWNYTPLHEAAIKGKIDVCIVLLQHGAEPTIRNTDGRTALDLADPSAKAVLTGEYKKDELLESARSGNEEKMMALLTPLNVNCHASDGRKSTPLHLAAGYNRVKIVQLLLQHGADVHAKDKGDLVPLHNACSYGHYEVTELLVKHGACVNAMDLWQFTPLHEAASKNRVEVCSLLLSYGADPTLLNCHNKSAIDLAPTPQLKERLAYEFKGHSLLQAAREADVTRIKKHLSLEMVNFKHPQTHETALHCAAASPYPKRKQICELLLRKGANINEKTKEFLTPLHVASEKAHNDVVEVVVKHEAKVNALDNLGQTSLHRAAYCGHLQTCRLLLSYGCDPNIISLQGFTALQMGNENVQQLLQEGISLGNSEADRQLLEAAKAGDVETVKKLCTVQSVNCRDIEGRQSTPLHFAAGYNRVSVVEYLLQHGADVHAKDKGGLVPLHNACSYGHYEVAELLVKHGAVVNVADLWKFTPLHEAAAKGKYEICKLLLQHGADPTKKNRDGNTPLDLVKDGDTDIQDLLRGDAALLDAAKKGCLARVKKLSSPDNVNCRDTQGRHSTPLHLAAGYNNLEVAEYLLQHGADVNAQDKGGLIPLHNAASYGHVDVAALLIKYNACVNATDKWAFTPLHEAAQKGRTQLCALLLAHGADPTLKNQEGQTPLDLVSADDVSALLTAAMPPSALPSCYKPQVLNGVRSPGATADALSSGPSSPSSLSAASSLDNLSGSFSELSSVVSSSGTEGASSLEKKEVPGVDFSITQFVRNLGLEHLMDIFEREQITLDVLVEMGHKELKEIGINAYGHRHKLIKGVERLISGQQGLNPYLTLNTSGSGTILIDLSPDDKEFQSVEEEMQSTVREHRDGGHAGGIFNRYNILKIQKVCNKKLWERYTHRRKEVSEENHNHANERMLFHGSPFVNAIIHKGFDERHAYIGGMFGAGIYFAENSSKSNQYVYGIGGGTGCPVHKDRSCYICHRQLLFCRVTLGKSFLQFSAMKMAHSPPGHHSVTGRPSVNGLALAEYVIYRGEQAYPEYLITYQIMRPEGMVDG

[4] = target: T2, Poly [ADP-ribose] polymerase tankyrase-1 (Homo sapiens, UniProt O95271); test: Inhibition of TNKS1 (unknown origin) using biotinylated NAD as substrate assessed as inhibition of autoPARsylation activity incubated for 1 hr by ELISA
T2 sequence (O95271 whole entry): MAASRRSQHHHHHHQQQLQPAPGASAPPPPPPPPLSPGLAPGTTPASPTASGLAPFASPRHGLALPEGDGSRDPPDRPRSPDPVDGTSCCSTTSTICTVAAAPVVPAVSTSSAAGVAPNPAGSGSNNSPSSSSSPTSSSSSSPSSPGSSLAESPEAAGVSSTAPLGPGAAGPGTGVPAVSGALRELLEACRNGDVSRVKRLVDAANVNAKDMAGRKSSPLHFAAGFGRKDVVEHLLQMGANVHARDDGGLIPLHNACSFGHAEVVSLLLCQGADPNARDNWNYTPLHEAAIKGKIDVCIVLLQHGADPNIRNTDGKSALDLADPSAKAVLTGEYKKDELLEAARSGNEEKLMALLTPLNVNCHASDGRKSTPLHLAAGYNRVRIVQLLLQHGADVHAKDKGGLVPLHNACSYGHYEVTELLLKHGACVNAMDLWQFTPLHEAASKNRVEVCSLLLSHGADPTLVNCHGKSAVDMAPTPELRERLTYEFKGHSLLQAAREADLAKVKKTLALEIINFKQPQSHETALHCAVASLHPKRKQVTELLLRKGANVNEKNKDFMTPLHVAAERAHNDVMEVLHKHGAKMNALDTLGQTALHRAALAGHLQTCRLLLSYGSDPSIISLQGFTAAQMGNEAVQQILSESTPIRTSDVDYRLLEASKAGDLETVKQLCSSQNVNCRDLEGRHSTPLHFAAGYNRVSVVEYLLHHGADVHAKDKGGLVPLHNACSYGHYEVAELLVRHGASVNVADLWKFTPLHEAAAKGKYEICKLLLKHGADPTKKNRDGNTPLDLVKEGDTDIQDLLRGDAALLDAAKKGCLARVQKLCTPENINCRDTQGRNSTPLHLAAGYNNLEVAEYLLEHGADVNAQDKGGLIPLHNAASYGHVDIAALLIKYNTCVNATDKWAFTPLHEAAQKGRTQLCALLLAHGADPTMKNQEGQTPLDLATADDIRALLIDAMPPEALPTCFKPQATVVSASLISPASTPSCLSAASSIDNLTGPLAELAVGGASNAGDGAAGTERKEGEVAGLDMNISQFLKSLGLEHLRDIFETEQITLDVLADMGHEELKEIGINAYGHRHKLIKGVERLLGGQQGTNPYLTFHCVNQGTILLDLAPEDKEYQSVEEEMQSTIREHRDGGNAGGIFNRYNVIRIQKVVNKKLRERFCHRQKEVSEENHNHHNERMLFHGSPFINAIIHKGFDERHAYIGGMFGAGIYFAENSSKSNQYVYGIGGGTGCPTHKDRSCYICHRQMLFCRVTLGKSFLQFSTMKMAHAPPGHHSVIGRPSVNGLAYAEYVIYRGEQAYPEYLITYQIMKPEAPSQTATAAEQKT

[5] = target: T2, Poly [ADP-ribose] polymerase tankyrase-1; test: Binding affinity to recombinant human TNKS1 (1091 to 1327 residues) assessed as dissociation constant by ITC method
[6] = target: T2, Poly [ADP-ribose] polymerase tankyrase-1; test: Inhibition of TNKS1 (unknown origin) using biotinylated NAD as substrate assessed as inhibition of autoPARsylation activity incubated for 90 mins by TR-FRET analysis

Chain of Poly [ADP-ribose] polymerase 1 (P09874 whole entry): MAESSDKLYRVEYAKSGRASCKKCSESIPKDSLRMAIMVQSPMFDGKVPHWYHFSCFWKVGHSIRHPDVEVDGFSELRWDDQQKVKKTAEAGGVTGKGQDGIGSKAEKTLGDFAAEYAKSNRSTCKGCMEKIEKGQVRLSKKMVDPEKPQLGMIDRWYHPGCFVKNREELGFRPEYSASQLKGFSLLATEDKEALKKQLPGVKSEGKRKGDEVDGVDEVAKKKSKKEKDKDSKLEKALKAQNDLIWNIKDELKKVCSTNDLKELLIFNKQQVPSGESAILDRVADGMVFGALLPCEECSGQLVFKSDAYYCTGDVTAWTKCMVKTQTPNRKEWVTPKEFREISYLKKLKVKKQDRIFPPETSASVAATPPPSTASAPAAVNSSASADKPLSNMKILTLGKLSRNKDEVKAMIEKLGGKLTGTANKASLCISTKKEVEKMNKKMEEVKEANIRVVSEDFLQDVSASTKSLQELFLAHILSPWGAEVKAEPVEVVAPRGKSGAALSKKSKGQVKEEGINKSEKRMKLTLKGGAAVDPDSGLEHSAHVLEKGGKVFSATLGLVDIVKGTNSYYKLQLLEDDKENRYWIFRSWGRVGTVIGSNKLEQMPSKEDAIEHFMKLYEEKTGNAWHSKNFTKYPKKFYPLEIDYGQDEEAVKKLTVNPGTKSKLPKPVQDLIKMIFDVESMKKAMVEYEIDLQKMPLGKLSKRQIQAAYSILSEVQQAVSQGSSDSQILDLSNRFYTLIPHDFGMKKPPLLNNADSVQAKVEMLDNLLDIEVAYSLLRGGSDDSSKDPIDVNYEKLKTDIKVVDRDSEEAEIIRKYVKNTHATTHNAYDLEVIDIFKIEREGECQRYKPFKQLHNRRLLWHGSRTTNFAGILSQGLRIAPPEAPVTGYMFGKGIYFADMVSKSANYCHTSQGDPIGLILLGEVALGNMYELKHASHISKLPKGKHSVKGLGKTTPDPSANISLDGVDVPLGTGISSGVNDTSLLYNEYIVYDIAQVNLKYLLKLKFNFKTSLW

SMILES: Cc1ccc2c(=O)[nH]c(-c3ccc(C(C)(C)O)cc3)nn12
IC50 [1]: 950 nM | EC50 [2]: 28 nM | IC50 [3]: 0.9 nM | IC50 [4]: 0.8 nM

SMILES: CC(C)(O)c1ccc(-c2cn3cc(F)cc3c(=O)[nH]2)cc1
IC50 [1]: 450 nM | EC50 [2]: 147 nM | IC50 [3]: 2.9 nM | IC50 [4]: 1.9 nM

SMILES: CC(C)(O)c1ccc(-c2cn3c(F)ccc3c(=O)[nH]2)cc1
IC50 [1]: 2000 nM | Kd [5]: 6 nM | EC50 [2]: 113 nM | IC50 [3]: 6.1 nM | IC50 [4]: 3.4 nM

SMILES: CC(C)(O)c1ccc(-c2cn3cc(Cl)cc3c(=O)[nH]2)cc1
IC50 [1]: 630 nM | EC50 [2]: 118 nM | IC50 [3]: 9.4 nM | IC50 [4]: 2.5 nM

SMILES: CC(C)(C)c1ccc(-c2cn3cncc3c(=O)[nH]2)cc1
EC50 [2]: 635 nM | IC50 [3]: 35 nM | IC50 [4]: 27 nM

SMILES: Cc1ccc(-c2cn3ccnc3c(=O)[nH]2)cc1
IC50 [6]: 1500 nM

SMILES: CC(C)(O)c1ccc(-c2cn3c(CO)ccc3c(=O)[nH]2)cc1
IC50 [1]: 4200 nM | EC50 [2]: 580 nM | IC50 [3]: 8.2 nM | IC50 [4]: 9.8 nM

SMILES: Cc1ccc2c(=O)[nH]c(-c3ccc(C4(O)COC4)cc3)cn12
IC50 [1]: 350 nM | EC50 [2]: 28 nM | IC50 [3]: 1.8 nM | IC50 [4]: 2.5 nM

SMILES: Cc1ncc2c(=O)[nH]c(-c3ccc(C(C)(C)C)cc3)cn12
IC50 [1]: 28000 nM | EC50 [2]: 210 nM | IC50 [3]: 3.8 nM | IC50 [4]: 2.9 nM

SMILES: Cc1ccc2c(=O)[nH]c(-c3ccc(C4(O)CC4)cc3)cn12
IC50 [1]: 330 nM | EC50 [2]: 49 nM | IC50 [3]: 1 nM | IC50 [4]: 1 nM

SMILES: CC(C)(O)c1ccc(-c2cn3cccc3c(=O)[nH]2)cc1
IC50 [1]: 920 nM | Kd [5]: 6 nM | EC50 [2]: 120 nM | IC50 [3]: 5.5 nM | IC50 [4]: 2.7 nM

The next lines start with the values.

IC50 [1]: 1300 nM | EC50 [2]: 159 nM | IC50 [3]: 3.5 nM | IC50 [4]: 1.2 nM
SMILES: CC(C)(O)c1ccc(-c2cn3c(F)c(F)cc3c(=O)[nH]2)cc1

IC50 [1]: 748 nM | EC50 [2]: 93 nM | IC50 [3]: 1.7 nM | IC50 [4]: 1.9 nM
SMILES: Cc1ccc2c(=O)[nH]c(-c3ccc([C@@](C)(O)CO)cc3)cn12

IC50 [1]: 23000 nM | EC50 [2]: 749 nM | IC50 [3]: 14 nM | IC50 [4]: 12 nM
SMILES: Cc1ncc2c(=O)[nH]c(-c3ccc(C(C)(C)O)cc3)cn12

EC50 [2]: 12000 nM | IC50 [3]: 2600 nM | IC50 [4]: 570 nM
SMILES: Cc1cc2c(=O)[nH]c(-c3ccc(C(C)(C)O)cc3)nn2n1

IC50 [1]: 440 nM | EC50 [2]: 96 nM | IC50 [3]: 1.5 nM | IC50 [4]: 2 nM
SMILES: Cc1csc2c(=O)[nH]c(-c3ccc(C(C)(C)O)cc3)nc12

IC50 [1]: 1900 nM | EC50 [2]: 230 nM | IC50 [3]: 7.9 nM | IC50 [4]: 2.3 nM
SMILES: Cc1cc2c(=O)[nH]c(-c3ccc(C(C)(C)O)cc3)cn2c1

IC50 [1]: 693 nM | EC50 [2]: 20 nM | IC50 [3]: 1.5 nM | IC50 [4]: 2.3 nM
SMILES: Cc1ccc2c(=O)[nH]c(-c3ccc(C(C)(C)OCCO)cc3)cn12

IC50 [1]: 604 nM | EC50 [2]: 82 nM | IC50 [3]: 2 nM | IC50 [4]: 2.6 nM
SMILES: Cc1ccc2c(=O)[nH]c(-c3ccc([C@](C)(O)CO)cc3)cn12

EC50 [2]: 1430 nM | IC50 [4]: 21 nM
SMILES: CC(C)(C)c1ccc(-c2cn3ccnc3c(=O)[nH]2)cc1

IC50 [1]: 770 nM | EC50 [2]: 18 nM | IC50 [3]: 1 nM | IC50 [4]: 0.8 nM
SMILES: Cc1ccc2c(=O)[nH]c(-c3ccc([C@](C)(O)CCO)cc3)cn12

IC50 [1]: 340 nM | EC50 [2]: 16 nM | IC50 [3]: 1.6 nM | IC50 [4]: 2.1 nM
SMILES: Cc1ccc2c(=O)[nH]c(-c3ccc([C@@](C)(O)CCO)cc3)cn12

IC50 [1]: 3700 nM | EC50 [2]: 510 nM | IC50 [3]: 36 nM | IC50 [4]: 13 nM
SMILES: Cc1cc2c(=O)[nH]c(-c3ccc(C(C)(C)O)cc3)cn2n1
